Eleven compounds from PubChem BioAssay AID248 (DTP/NCI, 2004) can be followed below.

The subject of the assay is L1210 leukemia ip in BDF1 mice, survival T/C. Briefly: NCI In Vivo Anticancer Drug Screen. Data for tumor model L1210 Leukemia (intraperitoneal) in B6D2F1 (BDF1) mice. To be noted: endpoint: mean survival time, higher = longer survival. The essentials:
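Tumor cells were implanted, animals were treated, and survival was followed. The result divides the treated measurement by the vehicle-control measurement.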

The mark [1] stands for this setting: dose: 50.0 mg/kg/injection, schedule: Q04DX003 (ip), vehicle: saline.
[2] abbreviates: dose: 200.0 mg/kg/injection, schedule: Q01DX009 (ip), vehicle: saline with Tween-80.
Where [3] appears, read: dose: 75.0 mg/kg/injection, schedule: Q01DX001 (ip), vehicle: other.
Where [4] appears, read: dose: 12.5 mg/kg/injection, schedule: Q01DX009 (ip), vehicle: saline.
Where [5] appears, read: dose: 25.0 mg/kg/injection, schedule: Q01DX009 (ip), vehicle: saline.

Where “and” joins values, the source holds several entries; their conditions need not be identical. Equal values may be shown once. Toxic doses and inconclusive results are not listed.

Consider `OCCN1CCN(CCCN2c3ccccc3Sc3ccc(C(F)(F)F)cc32)CC1`, for which the T/C (dose: 0.09 mg/kg/injection, schedule: Q01DX009 (ip), vehicle: Klucel (hydroxypropylcellulose) (HPC)) was 109 % of control; the T/C (dose: 0.12 mg/kg/injection, schedule: Q01DX009 (ip), vehicle: acetone) is 107 % of control; the T/C (dose: 0.19 mg/kg/injection, schedule: Q01DX009 (ip), vehicle: Klucel (hydroxypropylcellulose) (HPC)) is 97 % of control; the T/C (dose: 0.25 mg/kg/injection, schedule: Q01DX009 (ip), vehicle: acetone) is 106 % of control; the T/C (dose: 0.39 mg/kg/injection, schedule: Q01DX009 (ip), vehicle: Klucel (hydroxypropylcellulose) (HPC)) was 120 % of control; the T/C (dose: 0.39 mg/kg/injection, schedule: Q01DX009 (ip), vehicle: saline) was 97 % of control. Also, the T/C is 101 % of control (dose: 0.39 mg/kg/injection, schedule: Q04DX003 (ip), vehicle: saline); 112 % of control (dose: 0.5 mg/kg/injection, schedule: Q01DX009 (ip), vehicle: acetone); 111 % of control (dose: 0.58 mg/kg/injection, schedule: Q01DX009 (ip), vehicle: saline); 101 % of control (dose: 0.78 mg/kg/injection, schedule: Q01DX009 (ip), vehicle: Klucel (hydroxypropylcellulose) (HPC)); 108 % of control (dose: 0.78 mg/kg/injection, schedule: Q01DX009 (ip), vehicle: saline); 97 % of control and 108 % of control (dose: 0.78 mg/kg/injection, schedule: Q04DX003 (ip), vehicle: saline). Besides, the T/C is 120 % of control (dose: 1.0 mg/kg/injection, schedule: Q01DX009 (ip), vehicle: acetone); 108 % of control (dose: 1.17 mg/kg/injection, schedule: Q01DX009 (ip), vehicle: saline); 98 % of control (dose: 1.25 mg/kg/injection, schedule: Q01DX009 (ip), vehicle: saline); 92 % of control (dose: 1.56 mg/kg/injection, schedule: Q01DX009 (ip), vehicle: Klucel (hydroxypropylcellulose) (HPC)); 87 % of control (dose: 1.56 mg/kg/injection, schedule: Q01DX009 (ip), vehicle: saline); 97 % of control and 108 % of control (dose: 1.56 mg/kg/injection, schedule: Q04DX003 (ip), vehicle: saline). The T/C by setting is: (dose: 2.34 mg/kg/injection, schedule: Q01DX009 (ip), vehicle: saline) 97 % of control; (dose: 3.12 mg/kg/injection, schedule: Q04DX003 (ip), vehicle: saline) 102 % of control and 101 % of control; (dose: 4.68 mg/kg/injection, schedule: Q04DX003 (ip), vehicle: Klucel (hydroxypropylcellulose) (HPC)) 92 % of control; (dose: 5.0 mg/kg/injection, schedule: Q01DX009 (ip), vehicle: saline) 94 % of control and 88 % of control; (dose: 6.25 mg/kg/injection, schedule: Q04DX003 (ip), vehicle: saline) 100 % of control and 114 % of control and 112 % of control; (dose: 6.6 mg/kg/injection, schedule: Q04DX003 (ip), vehicle: saline) 106 % of control. In addition, the T/C is, setting by setting: (dose: 9.37 mg/kg/injection, schedule: Q04DX003 (ip), vehicle: Klucel (hydroxypropylcellulose) (HPC)) 107 % of control; (dose: 10.0 mg/kg/injection, schedule: Q04DX003 (ip), vehicle: saline) 117 % of control; (dose: 12.5 mg/kg/injection, schedule: Q04DX003 (ip), vehicle: saline) 107 % of control and 116 % of control; (dose: 15.0 mg/kg/injection, schedule: Q04DX003 (ip), vehicle: saline) 117 % of control; under setting [1], 164 % of control.

On to `Nc1cnccc1NCCc1cccc(O)c1`, for which the T/C reads like this: (dose: 12.5 mg/kg/injection, schedule: Q01DX009 (ip), vehicle: saline with Tween-80) 97 % of control; (dose: 25.0 mg/kg/injection, schedule: Q01DX009 (ip), vehicle: saline with Tween-80) 103 % of control; (dose: 50.0 mg/kg/injection, schedule: Q01DX009 (ip), vehicle: saline with Tween-80) 89 % of control; under setting [2], 88 % of control.

In the case of `OCCCCCCN=Cc1ccccc1O.OCCCCCCN=Cc1ccccc1O.[Cu]`, the T/C was 95 % of control (dose: 9.5 mg/kg/injection, schedule: Q01DX001 (ip), vehicle: other); 100 % of control and 92 % of control (dose: 19.0 mg/kg/injection, schedule: Q01DX001 (ip), vehicle: other); 93 % of control (dose: 19.0 mg/kg/injection, schedule: Q01DX009 (ip), vehicle: other); 94 % of control and 95 % of control (dose: 38.0 mg/kg/injection, schedule: Q01DX001 (ip), vehicle: other); 95 % of control (dose: 38.0 mg/kg/injection, schedule: Q01DX009 (ip), vehicle: other); 95 % of control and 102 % of control under setting [3]. Also, for the setting “dose: 75.0 mg/kg/injection, schedule: Q01DX009 (ip), vehicle: other”, the T/C is 96 % of control.

Regarding `NC1CCC(CC2CC3CCC2C3)CC1` (stereo not drawn), the T/C was 98 % of control under setting [4]; 91 % of control under setting [5]; 100 % of control (dose: 25.0 mg/kg/injection, schedule: Q04DX003 (ip), vehicle: saline); 100 % of control (dose: 50.0 mg/kg/injection, schedule: Q01DX009 (ip), vehicle: saline); 96 % of control under setting [1]; 90 % of control (dose: 100.0 mg/kg/injection, schedule: Q01DX009 (ip), vehicle: saline). Besides, for the setting “dose: 100.0 mg/kg/injection, schedule: Q04DX003 (ip), vehicle: saline”, the T/C is 96 % of control.

With `COc1ccc(NC(=O)Oc2ccccc2C(N)=O)c(OC)c1`, the T/C (dose: 25.0 mg/kg/injection, schedule: Q01DX009 (ip), vehicle: Klucel (hydroxypropylcellulose) (HPC)) was 109 % of control; the T/C (dose: 50.0 mg/kg/injection, schedule: Q01DX009 (ip), vehicle: Klucel (hydroxypropylcellulose) (HPC)) was 102 % of control; the T/C (dose: 100.0 mg/kg/injection, schedule: Q01DX009 (ip), vehicle: Klucel (hydroxypropylcellulose) (HPC)) was 103 % of control and 112 % of control.

Consider `NC(CCl)=NCC12CC3CC(CC(C3)C1)C2`, for which the T/C (dose: 100.0 mg/kg/injection, schedule: Q04DX002 (ip), vehicle: Klucel (hydroxypropylcellulose) (HPC)) was 98 % of control; the T/C (dose: 200.0 mg/kg/injection, schedule: Q04DX002 (ip), vehicle: Klucel (hydroxypropylcellulose) (HPC)) was 104 % of control and 87 % of control.

For the compound `NC(CSC(c1ccccc1)(c1ccccc1)c1ccc(Br)cc1)C(=O)O` (stereo not drawn), the T/C was 155 % of control (dose: 3.13 mg/kg/injection, schedule: Q01DX009 (ip), vehicle: saline); 162 % of control (dose: 6.25 mg/kg/injection, schedule: Q01DX009 (ip), vehicle: saline); 214 % of control under setting [4]; 111 % of control under setting [5]; 105 % of control under setting [3]; 121 % of control (dose: 150.0 mg/kg/injection, schedule: Q01DX001 (ip), vehicle: other).

On to `COc1ccccc1OCCOCCN(C)C1CC(C)CCC1C(C)C` (stereo not drawn), for which, under “dose: 100.0 mg/kg/injection, schedule: Q04DX003 (ip), vehicle: Klucel (hydroxypropylcellulose) (HPC)”, the T/C was 98 % of control.

`CCC1CCCCC1=O` (stereo not drawn): the T/C is, setting by setting: (dose: 100.0 mg/kg/injection, schedule: Q01DX009 (ip), vehicle: saline with Tween-80) 98 % of control; (dose: 100.0 mg/kg/injection, schedule: Q04DX003 (ip), vehicle: saline with Tween-80) 110 % of control; under setting [2], 97 % of control; (dose: 200.0 mg/kg/injection, schedule: Q04DX003 (ip), vehicle: saline with Tween-80) 111 % of control; (dose: 400.0 mg/kg/injection, schedule: Q01DX009 (ip), vehicle: saline with Tween-80) 101 % of control; (dose: 400.0 mg/kg/injection, schedule: Q04DX003 (ip), vehicle: saline with Tween-80) 94 % of control.

For `NN=C1CCC(=NN)CC1`, the T/C by setting is: (dose: 25.0 mg/kg/injection, schedule: Q01DX009 (ip), vehicle: water) 101 % of control; (dose: 25.0 mg/kg/injection, schedule: Q04DX003 (ip), vehicle: water) 109 % of control; (dose: 50.0 mg/kg/injection, schedule: Q01DX009 (ip), vehicle: water) 114 % of control; (dose: 50.0 mg/kg/injection, schedule: Q04DX003 (ip), vehicle: water) 109 % of control; (dose: 100.0 mg/kg/injection, schedule: Q04DX003 (ip), vehicle: water) 114 % of control and 124 % of control.

In the case of `O=C(O)CCC(NC(=O)c1ccccc1C(=O)O)C(=O)O` (stereo not drawn), the T/C by setting is: (dose: 100.0 mg/kg/injection, schedule: Q01DX001 (ip), vehicle: carboxymethylcellulose (CMC)) 94 % of control; (dose: 200.0 mg/kg/injection, schedule: Q01DX001 (ip), vehicle: carboxymethylcellulose (CMC)) 94 % of control; (dose: 400.0 mg/kg/injection, schedule: Q01DX001 (ip), vehicle: carboxymethylcellulose (CMC)) 90 % of control.
